# In patent US20260125382A1, “COMPOUNDS FOR INHIBITING OR DEGRADING CDK2 AND/OR CDK9 AND MEDICINAL USE THEREOF” (KOREA RESEARCH INSTITUTE OF CHEMICAL TECHNOLOGY, priority 2022, published 2026):
# Legend:
# CDK2 = target: T1, CDK2 (Homo sapiens, UniProt P24941); experiment: CDK protein degradation activity (Western blotting), CDK2; type: cell-based; conditions: MDA-MB-231 cells, 16 hours, Western blot
# T1 construct: endogenous in cells; host or cells: MDA-MB-231
# Method in brief: (§1)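 MDA-MB-231 cells treated 16 h with compound at 100 nM, 1 μM or 10 μM, with DMSO as control. Lysates run on SDS-PAGE and immunoblotted for CDK2, CDK9 and tubulin; band levels quantified by densitometry.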
# CDK9 = target: T2, CDK9 (Homo sapiens, UniProt P50750); experiment: CDK protein degradation activity (Western blotting), CDK9; type: cell-based; conditions: MDA-MB-231 cells, 16 hours, Western blot
# T2 construct: endogenous in cells; host or cells: MDA-MB-231
# Method in brief: as §1
# T2 sequence (P50750 whole entry): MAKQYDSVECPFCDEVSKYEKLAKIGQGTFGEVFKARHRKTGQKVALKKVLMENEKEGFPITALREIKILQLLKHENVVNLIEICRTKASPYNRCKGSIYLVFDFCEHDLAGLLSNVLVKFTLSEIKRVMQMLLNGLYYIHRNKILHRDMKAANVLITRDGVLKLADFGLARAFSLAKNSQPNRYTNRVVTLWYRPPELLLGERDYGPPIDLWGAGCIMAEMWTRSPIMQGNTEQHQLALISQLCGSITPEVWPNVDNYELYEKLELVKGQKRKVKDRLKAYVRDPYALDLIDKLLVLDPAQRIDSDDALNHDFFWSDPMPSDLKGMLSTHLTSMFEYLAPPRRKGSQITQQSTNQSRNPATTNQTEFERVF
Structure (SMILES),Enzyme degradation CDK2 (% remaining) @ 0.1 μM (CDK2),Enzyme degradation CDK2 (% remaining) @ 1 μM (CDK2),Enzyme degradation CDK2 (% remaining) @ 10 μM (CDK2),Enzyme degradation CDK9 (% remaining) @ 0.1 μM (CDK9),Enzyme degradation CDK9 (% remaining) @ 1 μM (CDK9),Enzyme degradation CDK9 (% remaining) @ 10 μM (CDK9)
"Cc1cccc(C(=O)NC2CC(n3cnc4c(NCCC5CCN(CC6CCN(C(=O)C7CCN(c8ccc9c(c8)C(=O)N([C@H]8CCC(=O)NC8=O)C9=O)CC7)CC6)CC5)ncnc43)C2)n1 (stereo partly drawn) [Compound 355, N-((1s,3s)-3-(6-((2-(1-((1-(1-(2-(2,6-dioxopiperidin-3-yl)-1,3-dioxoisoindolin-5-yl)piperidin-4-carbonyl)piperidin-4-yl)methyl)piperidin-4-yl)ethyl)amino)-9H-purin-9-yl)cyclobutyl)-6-methylpicolinamide]",70%,60%,60%,10%,0%,0%
"Cc1cccc(C(=O)NC2CC(n3cnc4c(NCc5ccc(N6CCN(CC7CCN(c8cccc9c8C(=O)N([C@H]8CCC(=O)NC8=O)C9=O)CC7)CC6)cc5)ncnc43)C2)n1 (stereo partly drawn) [Compound 150, N-((1s,3s)-3-(6-((4-(4-((1-(2-(2,6-dioxopiperidin-3-yl)-1,3-dioxoisoindolin-4-yl)piperidin-4-yl)methyl)piperazin-1-yl)benzyl)amino)-9H-purin-9-yl)cyclobutyl)-6-methylpicolinamide]",70%,80%,80%,20%,10%,0%
"Cc1cccc(C(=O)NC2CC(n3cnc4c(NCc5ccc(OCCCN6CCN(C(=O)CNc7ccc8c(c7)C(=O)N([C@H]7CCC(=O)NC7=O)C8=O)CC6)cc5)ncnc43)C2)n1 (stereo partly drawn) [Compound 114, N-((1s,3s)-3-(6-((4-(3-(4-((2-(2,6-dioxopiperidin-3-yl)-1,3-dioxoisoindolin-5-yl)glycyl)piperazin-1-yl)propoxy)benzyl)amino)-9H-purin-9-yl)cyclobutyl)-6-methylpicolinamide]",30%,40%,50%,0/0/0%,0/0/0%,0/0/0%
"O=C1CC[C@H](N2C(=O)c3cccc(OCC(=O)N4CCC(CN5CCC(c6ccc(Nc7ncnc8c7ncn8[C@H]7C[C@@H](NC(=O)Cc8ccccc8)C7)cc6)CC5)CC4)c3C2=O)C(=O)N1 [Compound 287, N-((1s,3s)-3-(6-((4-(1-((1-(2-((2-(2,6-dioxopiperidin-3-yl)-1,3-dioxoisoindolin-4-yl)oxy)acetyl)piperidin-4-yl)methyl)piperidin-4-yl)phenyl)amino)-9H-purin-9-yl)cyclobutyl)-2-phenylacetamide]",0/0/0%,0/0/0%,0/0/0%,0/0/0%,0/0/0%,0/0/0%
"CC(=O)N[C@H]1C[C@@H](n2cnc3c(NCC4CCN(CC5CCN(C(=O)CNc6ccc7c(c6)C(=O)N([C@H]6CCC(=O)NC6=O)C7=O)CC5)CC4)ncnc32)C1 [Compound 156, N-((1s,3s)-3-(6-(((1-((1-((2-(2,6-dioxopiperidin-3-yl)-1,3-dioxoisoindolin-5-yl)glycyl)piperidin-4-yl)methyl)piperidin-4-yl)methyl)amino)-9H-purin-9-yl)cyclobutyl)acetamide]",100%,80%,70%,80%,50%,40%
"O=C1CC[C@H](N2C(=O)c3cccc(N4CCC(CN5CCN(c6ccc(Nc7ncnc8c7ncn8C7CC(NC(=O)Cc8ccccc8)C7)cc6)CC5)CC4)c3C2=O)C(=O)N1 (stereo partly drawn) [Compound 178, N-((1s,3s)-3-(6-((4-(4-((1-(2-(2,6-dioxopiperidin-3-yl)-1,3-dioxoisoindolin-4-yl)piperidin-4-yl)methyl)piperazin-1-yl)phenyl)amino)-9H-purin-9-yl)cyclobutyl)-2-phenylacetamide]",30%,20%,20%,10%,0%,0%
"Cc1cccc(C(=O)N[C@H]2C[C@@H](n3cnc4c(Nc5ccc(N6CCN(CCC7CCN(C(=O)COc8ccc([C@@H]9CCC(=O)NC9=O)cc8)CC7)CC6)cc5)ncnc43)C2)n1 [Compound 444, N-((1s,3s)-3-(6-((4-(4-(2-(1-(2-(4-(2,6-dioxopiperidin-3-yl)phenoxy)acetyl)piperidin-4-yl)ethyl)piperazin-1-yl)phenyl)amino)-9H-purin-9-yl)cyclobutyl)-6-methylpicolinamide]",30/30/30%,30/30/30%,30/30/30%,0/0/0%,0/0/0%,0/0/0%
"O=C1CC[C@H](N2C(=O)c3ccc(OCC(=O)N4CCC(CN5CCN(c6ccc(Nc7ncnc8c7ncn8[C@H]7C[C@@H](NC(=O)c8c(Cl)cccc8Cl)C7)cc6)CC5)CC4)cc3C2=O)C(=O)N1 [Compound 162, 2,6-dichloro-N-((1s,3s)-3-(6-((4-(4-((1-(2-((2-(2,6-dioxopiperidin-3-yl)-1,3-dioxoisoindolin-5-yl)oxy)acetyl)piperidin-4-yl)methyl)piperazin-1-yl)phenyl)amino)-9H-purin-9-yl)cyclobutyl)benzamide]",50/50/50%,50/50/50%,50/50/50%,0/0/0%,0/0/0%,0/0/0%
